The supplement of paper PMC5412046
Counter-ions that a name gives are not always drawn.

Columns and labels:
[1] = system: SB.mhdgc-1; experiment: AC50 for growth inhibition (viability) (log10 M); higher = less potent; settings: SB.mhdgc-1 (hereditary c.1380delA CDH1 gastric cancer)
Summary of the method: (§1)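 A four-parameter fit of viability, normalised to DMSO, gave the log half-maximal activity concentration, and only high-quality curve classes were kept. Cells came from hereditary or sporadic gastric cancer patients, 500 per 1536 well, and were dosed for 48 h at 11 threefold dilutions from a final 46 μM. Readout was CellTiter-Glo luminescence on a ViewLux.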

[2] = system: SB.msgc-1; experiment: as above; settings: SB.msgc-1 (sporadic gastric cancer)
Summary of the method: as §1

Cc1nc(NC(=O)N2CCC[C@H]2C(N)=O)sc1-c1csc(C(C)(C)C)n1 [A-66]
AC50 for growth inhibition (log10 M) [1]: -5.38
AC50 for growth inhibition (log10 M) [2]: -6.53

CCC(c1ccc(O)cc1)C(CC)c1ccc(O)cc1 (stereo not given) [Hexestrol]
AC50 for growth inhibition (log10 M) [1]: -5.88
AC50 for growth inhibition (log10 M) [2]: -5.88

Cn1cc(CNCC2CCN(c3ncc(C(=O)NO)cn3)CC2)c2ccccc21 [Quisinostat hydrochloride]
AC50 for growth inhibition (log10 M) [1]: -6.73
AC50 for growth inhibition (log10 M) [2]: -7.23

CN(C)[C@@H](CCOc1cccc2ccccc12)c1ccccc1 [Dapoxetine hydrochloride]
AC50 for growth inhibition (log10 M) [1]: -5.48
AC50 for growth inhibition (log10 M) [2]: -4.73

c1nc2c(NC3CCCCC3)nc(Nc3ccc(N4CCOCC4)cc3)nc2[nH]1 [Reversine]
AC50 for growth inhibition (log10 M) [1]: -4.63
AC50 for growth inhibition (log10 M) [2]: -4.73

COc1c(C)c2c(c(O)c1C/C=C(\C)CCC(=O)OCCN1CCOCC1)C(=O)OC2 [Mycophenolate mofetil]
AC50 for growth inhibition (log10 M) [1]: -5.88
AC50 for growth inhibition (log10 M) [2]: -5.03

C[N]1C=C(C2=CC=CC=C12)\C3=C(\C(=O)NC3=O)C4=C[N](C5CCN(CC5)CC6=NC=CC=C6)C7=C4C=CC=C7 [Enzastaurin]
AC50 for growth inhibition (log10 M) [1]: -4.98
AC50 for growth inhibition (log10 M) [2]: -4.98

Cc1ccc2nc(NCCN)c3ncc(C)n3c2c1
AC50 for growth inhibition (log10 M) [1]: -6.18
AC50 for growth inhibition (log10 M) [2]: -5.18

COC(=O)Nc1ccc(-c2nc(N3CCOCC3)c3cnn(C4CCN(Cc5cccnc5)CC4)c3n2)cc1 [WYE-687]
AC50 for growth inhibition (log10 M) [1]: -7.18
AC50 for growth inhibition (log10 M) [2]: -4.68

O=C(CCCCCCC(=O)Nc1ccc([C@H]2O[C@@H](CSc3nc(-c4ccccc4)c(-c4ccccc4)o3)C[C@@H](c3ccc(CO)cc3)O2)cc1)NO [Tubacin]
AC50 for growth inhibition (log10 M) [1]: -4.73
AC50 for growth inhibition (log10 M) [2]: -4.58

C[S+](=O)([O-])N1CCN(Cc2cc3nc(-c4cccc5[nH]ncc45)nc(N4CCOCC4)c3s2)CC1 [GDC-0941]
AC50 for growth inhibition (log10 M) [1]: -7.23
AC50 for growth inhibition (log10 M) [2]: -6.13

Nc1nnc(-c2cccc(Cl)c2Cl)c(N)n1 [Lamotrigine]
AC50 for growth inhibition (log10 M) [1]: -4.53
AC50 for growth inhibition (log10 M) [2]: -4.63

CC[S+](=O)([O-])N1CC(CC#N)(n2cc(-c3ncnc4[nH]ccc34)cn2)C1 [Baricitinib]
AC50 for growth inhibition (log10 M) [1]: -4.88
AC50 for growth inhibition (log10 M) [2]: -4.63

Cc1cc(C[S+](=O)([O-])c2ccccc2)cc(OCc2ccc(CN3CCC[C@@H]3CO)cc2)c1 [PF-543]
AC50 for growth inhibition (log10 M) [1]: -4.78
AC50 for growth inhibition (log10 M) [2]: -4.83

O=[S+]([O-])(O)c1ccc2cc(/N=N/c3cc([S+](=O)([O-])O)c4cccnc4c3O)ccc2c1
AC50 for growth inhibition (log10 M) [1]: -4.68
AC50 for growth inhibition (log10 M) [2]: -4.93

CCN(CC)CCCC(C)Nc1ccnc2cc(Cl)ccc12 (stereo not given) [Chloroquine (CQ)]
AC50 for growth inhibition (log10 M) [1]: -4.98
AC50 for growth inhibition (log10 M) [2]: -4.73

C/C(O)=C(\C#N)C(=O)Nc1ccc(C(F)(F)F)cc1 [Teriflunomide]
AC50 for growth inhibition (log10 M) [1]: -4.63
AC50 for growth inhibition (log10 M) [2]: -4.78

COC(=O)C\1=C(C)\N\C(=C(/C1C2=CC=CC3=NON=C23)C(=O)OC(C)C)C (stereo not given) [Isradipine]
AC50 for growth inhibition (log10 M) [1]: -5.38
AC50 for growth inhibition (log10 M) [2]: -4.78

CCC(=O)NC[C@H](Cc1ccc(OCCc2nc(-c3ccccc3)oc2C)cc1)N/C(C)=C\C(=O)c1ccc(C(F)(F)F)cc1 [GW-6471]
AC50 for growth inhibition (log10 M) [1]: -5.48
AC50 for growth inhibition (log10 M) [2]: -4.73

COc1ccc2c(c1)c(CC(=O)O)c(C)n2C(=O)c1ccc(Cl)cc1 [Indomethacin]
AC50 for growth inhibition (log10 M) [1]: -6.03
AC50 for growth inhibition (log10 M) [2]: -5.93

COc1cccc2c1C(=O)c1c(O)c3c(c(O)c1C2=O)C[C@@](O)(C(=O)CO)C[C@@H]3O[C@H]1C[C@H](N)[C@@H](O)[C@H](C)O1 [Epirubicin hydrochloride]
AC50 for growth inhibition (log10 M) [1]: -6.93
AC50 for growth inhibition (log10 M) [2]: -6.18

CC(C)c1cnn2c(NCc3ccccc3)cc(NCCCCCCN)nc12 [BS-181]
AC50 for growth inhibition (log10 M) [1]: -4.83
AC50 for growth inhibition (log10 M) [2]: -4.73

COc1cc(OC)c(/C=C/[S+](=O)([O-])Cc2ccc(OC)c(NCC(=O)[O][Na])c2)c(OC)c1
AC50 for growth inhibition (log10 M) [1]: -6.03
AC50 for growth inhibition (log10 M) [2]: -6.33

Nc1nc(N)c(N=O)c(OCC2CCCCC2)n1 [NU-6027]
AC50 for growth inhibition (log10 M) [1]: -5.33
AC50 for growth inhibition (log10 M) [2]: -4.73

CC[C@H](CC#N)OC(=O)N[C@@H](C)c1cccc(NC(=O)Nc2ccc(-c3cnco3)c(OC)c2)c1 [AVN-944]
AC50 for growth inhibition (log10 M) [1]: -5.88
AC50 for growth inhibition (log10 M) [2]: -5.23

c1ccc(-c2oc3ncnc(NC[C@@H]4CCCO4)c3c2-c2ccccc2)cc1 [AIM-100]
AC50 for growth inhibition (log10 M) [1]: -5.08
AC50 for growth inhibition (log10 M) [2]: -5.73

CN1CCN(CC1)C2=CC3=C([NH]C(=N3)C/4=C(\N)C5=C(F)C=CC=C5NC4=O)C=C2 [Dovitinib]
AC50 for growth inhibition (log10 M) [1]: -4.78
AC50 for growth inhibition (log10 M) [2]: -4.73

CN[C@@H]1C[C@H]2O[C@@](C)([C@@H]1OC)n1c3ccccc3c3c4c(c5c6ccccc6n2c5c31)C(=O)N[C@H]4O [7-Hydroxystaurosporine]
AC50 for growth inhibition (log10 M) [1]: -6.28
AC50 for growth inhibition (log10 M) [2]: -5.93

O=C(NC[C@H](O)CO)c1ccncc1Nc1ccc(I)cc1F [Pimasertib]
AC50 for growth inhibition (log10 M) [1]: -4.73
AC50 for growth inhibition (log10 M) [2]: -6.38

CNC(=O)[C@H](Cc1ccccc1)NC(=O)[C@H](CC(C)C)[C@H](CSc1cccs1)C(=O)NO [Batimastat]
AC50 for growth inhibition (log10 M) [1]: -4.68
AC50 for growth inhibition (log10 M) [2]: -4.93

Cc1cnc(Nc2ccc(F)cc2Cl)nc1-c1c[nH]c(C(=O)N[C@H](CO)c2cccc(Cl)c2)c1
AC50 for growth inhibition (log10 M) [1]: -5.13
AC50 for growth inhibition (log10 M) [2]: -4.73

O=C(Nc1ccc([N+](=O)[O-])cc1Cl)c1cc(Cl)ccc1O [Niclosamide]
AC50 for growth inhibition (log10 M) [1]: -5.88
AC50 for growth inhibition (log10 M) [2]: -5.38

COc1ccc(-c2ccc3cc(C(=O)O)ccc3c2)cc1C12CC3CC(CC(C3)C1)C2 [Adapalene]
AC50 for growth inhibition (log10 M) [1]: -5.28
AC50 for growth inhibition (log10 M) [2]: -5.23

CC[C@@]1(O)C[C@H](O[C@H]2C[C@H](N(C)C)[C@H](O[C@H]3C[C@H](O)[C@H](O[C@H]4CCC(=O)[C@H](C)O4)[C@H](C)O3)[C@H](C)O2)c2c(cc3c(c2O)C(=O)c2c(O)cccc2C3=O)[C@H]1C(=O)OC [Aclarubicin]
AC50 for growth inhibition (log10 M) [1]: -6.78
AC50 for growth inhibition (log10 M) [2]: -6.28

COc1ccc([S+](=O)([O-])Nc2cccnc2Nc2ccc(O)cc2)cc1 [E-7010]
AC50 for growth inhibition (log10 M) [1]: -5.83
AC50 for growth inhibition (log10 M) [2]: -6.93

CC(=O)NCC(=O)N1[C@@H]2CC[C@H]1c1ccc(Nc3ncc(C(F)(F)F)c(NC4CCC4)n3)cc12
AC50 for growth inhibition (log10 M) [1]: -5.48
AC50 for growth inhibition (log10 M) [2]: -5.33

CCn1nnc2c(N3CCOCC3)nc(-c3ccc(NC(=O)Nc4ccc(C(=O)N5CCN(C)CC5)cc4)cc3)nc21 [PKI-402]
AC50 for growth inhibition (log10 M) [1]: -5.43
AC50 for growth inhibition (log10 M) [2]: -5.88

CN(C)[S+](=O)([O-])c1ccc2c(c1)C(=Cc1cc3c([nH]1)CCCC3)C(=O)N2 [SU-6656]
AC50 for growth inhibition (log10 M) [1]: -5.28
AC50 for growth inhibition (log10 M) [2]: -5.43

COc1cc([C@@H]2c3cc4c(cc3[C@H](O)[C@H]3COC(=O)[C@@H]23)OCO4)cc(OC)c1OC [Picropodophyllin]
AC50 for growth inhibition (log10 M) [1]: -6.48
AC50 for growth inhibition (log10 M) [2]: -6.73

COc1cc2c(cc1OC)CN(CCc1ccc(NC(=O)c3cc(OC)c(OC)cc3NC(=O)c3cnc4ccccc4c3)cc1)CC2 [Tariquidar]
AC50 for growth inhibition (log10 M) [1]: -5.03
AC50 for growth inhibition (log10 M) [2]: -5.08

N#Cc1ccc(COC[C@H]2O[C@@H](n3c(NCc4ccc(Cl)c(Cl)c4)nc4c(N)ncnc43)[C@H](O)[C@@H]2O)cc1
AC50 for growth inhibition (log10 M) [1]: -4.93
AC50 for growth inhibition (log10 M) [2]: -5.08

CC(C)OC(=O)OCOP(=O)(CO[C@H](C)Cn1cnc2c(N)ncnc21)OCOC(=O)OC(C)C.O=C(O)C=CC(=O)O [Tenofovir Disoproxil Fumarate]
AC50 for growth inhibition (log10 M) [1]: -4.68
AC50 for growth inhibition (log10 M) [2]: -4.78

O=C(NC1CC1)c1cccc(-c2ccc3c(NC(=O)C4CC4)n[nH]c3c2)c1
AC50 for growth inhibition (log10 M) [1]: -5.93
AC50 for growth inhibition (log10 M) [2]: -6.03

COc1cccc2c(NCc3ccccc3)nc(-n3c(N)nc4ccccc43)nc12
AC50 for growth inhibition (log10 M) [1]: -5.13
AC50 for growth inhibition (log10 M) [2]: -5.08

CO[C@H]1/C=C/O[C@@]2(C)Oc3c(C)c(O)c4c(O)c(c(/C=N\N5CCN(C6CCCC6)CC5)c(O)c4c3C2=O)NC(=O)/C(C)=C\C=C\[C@H](C)[C@H](O)[C@@H](C)[C@@H](O)[C@@H](C)[C@H](OC(C)=O)[C@@H]1C [Rifapentine]
AC50 for growth inhibition (log10 M) [1]: -7.38
AC50 for growth inhibition (log10 M) [2]: -6.33

Cc1nn(Cc2ccccc2Cl)c(C)c1CN(C)CC(O)COc1ccc(Cl)cc1 (stereo not given)
AC50 for growth inhibition (log10 M) [1]: -4.78
AC50 for growth inhibition (log10 M) [2]: -4.73

CC(C)(C)C(=O)OCOP(=O)(COCCn1cnc2c(N)ncnc21)OCOC(=O)C(C)(C)C [Adefovir dipivoxil]
AC50 for growth inhibition (log10 M) [1]: -6.93
AC50 for growth inhibition (log10 M) [2]: -5.28

N#Cc1c(NC(=O)c2cccc3ccccc23)sc2c1CCCC2 [TCS JNK 5a]
AC50 for growth inhibition (log10 M) [1]: -5.88
AC50 for growth inhibition (log10 M) [2]: -5.98

C[C@]1(CO)CN(c2cc(C(=O)Nc3ccc4c(c3)-c3c(c(C(N)=O)nn3-c3ccc(F)cc3)CC4)c(Cl)cn2)C[C@@]1(C)CO [PF-184]
AC50 for growth inhibition (log10 M) [1]: -5.43
AC50 for growth inhibition (log10 M) [2]: -5.08

ClC1=CC=C(C=C1)C(C#N)C2=C(Cl)C=C(C=C2Cl)N3\N=C/C(=O)NC3=O (stereo not given) [Diclazuril]
AC50 for growth inhibition (log10 M) [1]: -4.78
AC50 for growth inhibition (log10 M) [2]: -4.73
